Experiments:
[1] = target: T1, σ1^spCFP/YFP construct expressed in HEK-293 cells (Homo sapiens, UniProt Q99720); experiment: Single-cell real-time intramolecular FRET (iFRET) of the σ1 receptor FRET sensor; format: cell-based; conditions: for change in the FRET signal of the σ1^spCFP/YFP: 100 μM, single HEK-293 cell, FIG. 3
T1 construct: PTHR (PTH1R) signal peptide (N); expressed in transfected cells; host or cells: HEK-293 (stably transfected, G418 selected)
Protocol: In the single cell real time intramolecular-FRET approach both donor (i.e. CFP) and acceptor (i.e. YFP) are located in the same molecule, as designed for the σ1^CFP/YFP and the σ1^spCFP/YFP constructs (FIG. 1A). In brief, HEK cells permanently expressing the corresponding σ1 receptor FRET sensor were seeded in poly-D-Lysine coated coverslips and allow growing overnight. Then, the coverslips with transfected cells were mounted in an Attofluor holder and placed on an inverted Axio Observer microscope (Zeiss, Jena, Germany) equipped with a 63× oil immersion objective and a dual-emission photometry system (Till Photonics, Gräfelfing, Germany). The extracellular buffer was Hank's Balanced Salt Solution (HBSS), containing (in mM): 137 NaCl, 0.34 Na2HPO4, […], 0.44 KH2PO4, 0.5 MgCl2, 0.4 Mg2SO4, 1.26 CaCl2, 10 HEPES, 2 D-glucose and 1 ascorbic acid (pH 7.4 with NaOH).
A Polychrome V (Till Photonics) was used as the light source. The sample was illuminated with excitation light at 436±10 nm (beam splitter dichroic long-pass; DCLP 460 nm). Excitation time was 10 ms at 10 Hz, in order to limit photobleaching. Emission light intensities were determined at 535±15 and 480±20 nm (DCLP 505 nm). No corrections for spillover between channels or direct YFP excitation were made.
Single cells were selected for recording based on their σ1 expression as judged by its fluorescence. […] The ligands were applied using a pressure-driven, computer-controlled perfusion system (Octaflow; ALA Scientific Instruments, Westbury, N.Y., USA) and experiments were carried out at room temperature. Finally, a Digidata 1440 analog/digital converter (Molecular Devices, Sunnyvale, Calif., USA) was used for interfacing the photometry system and the perfusion system with a personal computer, which was used to control these systems and to record data. Finally, pCLAMP (Molecular Devices) and GraphPad Prism (GraphPad Software Inc., San Diego, Calif., USA) software were used for data collection and analysis.

sigma-2 (σ2) site = sigma-2 (σ2) site (Homo sapiens, UniProt Q5BJF2); conditions: cited from earlier work
sigma-2 (σ2) site, sequence (Q5BJF2 whole entry): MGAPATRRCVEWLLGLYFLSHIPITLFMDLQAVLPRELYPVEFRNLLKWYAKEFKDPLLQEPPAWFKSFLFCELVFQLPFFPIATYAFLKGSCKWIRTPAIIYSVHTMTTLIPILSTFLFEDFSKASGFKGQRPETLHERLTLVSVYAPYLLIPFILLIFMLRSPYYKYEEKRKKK

σ1 site = σ1 site (Homo sapiens, UniProt Q99720); conditions: cited from earlier work
σ1^YFP and CFP = experiment: Control experiments with coexpression of σ1^YFP and CFP; format: cell-based, human; conditions: data not shown
Protocol: Next, we investigated whether σ1 challenge produced any rearrangements of the N- and C-terminal domains (i.e. conformational change) of the σ1 receptor by monitoring real time changes in the FRET efficiency. To this end, changes in the emission intensities of YFP (535 nm, yellow), CFP (480 nm, cyan) and the ratio F*535/F*480 (black) were recorded simultaneously from single cells after rapid superfusion with σ1 receptor ligands.

## CC(C)=CCN1CCC2(C)c3cc(O)ccc3CC1C2C (single isomer, unassigned; (+)) [(+)-Pentazocine]
[1]
  change in the FRET signal of the σ1^spCFP/YFP: decrease

## COc1ccc2c(c1)[C@]13CCCC[C@@H]1[C@H](C2)N(C)CC3 [Dextromethorphan]
[1]
  change in the FRET signal of the σ1^spCFP/YFP: decrease

## C=CCN1CC[C@]2(C)c3cc(O)ccc3C[C@H]1[C@H]2C [SKF-10,047]
sigma-2 (σ2) site
  affinity for the sigma-2 (σ2) site: micromolar affinity
σ1 site
  affinity for the σ1 site: nanomolar affinity

## O=C(CCCN1CCC(O)(c2ccc(Cl)cc2)CC1)c1ccc(F)cc1 [Haloperidol]
σ1^YFP and CFP
  FRET in the presence of ligand: no FRET

## CCCN(CCC)CCc1ccc(OC)c(OCCc2ccccc2)c1 [NE-100]
[1]
  change in the FRET signal of the σ1^spCFP/YFP: increase

## O=C(OCCN1CCOCC1)C1(c2ccccc2)CCCCC1 [PRE-048]
σ1^YFP and CFP
  FRET in the presence of ligand: no FRET
[1]; 100 μM ligand
  delay before FRET change: ~5 s
[1]; 100 μM ligand, n=3
  time constant τ of monoexponential time course of FRET change: 10.3 ± 0.3 s
[1]; 100 μM ligand, rapid superfusion, single HEK-293 cells, FIG. 2D-E
  change in the F*535/F*480 ratio: rapid decrease
[1]
  change in the FRET signal of the σ1^spCFP/YFP: decrease

## CCCN1CCC[C@H](c2cccc(O)c2)C1 [(+)-3-PPP]
[1]
  change in the FRET signal of the σ1^spCFP/YFP: decrease
